Reference: US20060178342A1, “Hyaluronan as a cytotoxic agent, drug pre-sensitizer and chemo-sensitizer in the treatment of disease” (priority 2001, published 2006)
“Also recorded” adds a separate entry of the source.

Tests used:
[1] = system: MDA-MB-231; assay: Breast cancer cell count assay (Coulter counter), HA ± adriamycin; assay type: cell-based, human
Method: (§1) Cell lines MDA-MB-468, MDA-MB-435 and MDA-MB-231 were routinely grown and subcultured as a monolayer in 175 cm^2 culture flasks in Leibovitz L-15 Medium supplemented with 10% Foetal calf serum (FCS) and antibiotic/antimycotic reagents at 37° C. in humidity controlled incubator with 100% (v/v) air.
(§2) For the tests, MDA MB-468, MDA MB-231 and MDA MB-435 cell line were grown in 90% Leibovitz L-15 medium supplemented with 10% FCS. When confluent the cultures were washed 1× in HBSS and trypsinised in 0.25% trypsin/0.05% EDTA. The cell suspensions were counted with an automated cell counter (ZM-2 Coulter Counter) by adding 15 mL saline+0.2 ml of cell suspension. • Cells were resuspended to a number of:
(§3) The cells were plated into 48-well plates (1 cm^2 surface area) by adding 1 ml of cell suspension per well. • Cells were allowed to attach for 24 h, before the media was removed, monolayers washed. The test media was; growth media containing 0-1 μM adriamycin or 5-fluorouracil with or without the addition of 0-1 μM of HA (modal Mw 750,000).
(§4) The cells were exposed to the several combinations of HA and drugs for different times and at different concentrations (Table 3).
(§5) After the incubation and growth periods the cell monolayers were washed with HBSS and trypsinised in 0.25% trypsin/0.05% EDTA. The cell suspensions were counted with an automated cell counter (ZM-2 Coulter Counter) by adding 15 mL saline+0.2 ml of cell suspension. Results were expressed as % of no drug control which was calculated as: […]

[2] = system: MDA-MB-468; assay: as above; assay type: cell-based, human
Method: as §1, §2, §3, §4, §5

[3] = system: human breast cancer cells; assay: Breast cancer cell count assay, cell line not specified or pooled; assay type: cell-based; conditions: HA incubated 30 min, 1 h, 24 h or 3 days
Method: The cell suspensions were counted with an automated cell counter (ZM-2 Coulter Counter) by adding 15 mL saline+0.2 ml of cell suspension. • Cells were resuspended to a number of: […] The cell suspensions were counted with an automated cell counter (ZM-2 Coulter Counter) by adding 15 mL saline+0.2 ml of cell suspension. Results were expressed as % of no drug control which was calculated as: […]

[4] = system: MDA-MB-468 human breast carcinoma xenografts; assay: 6-week efficacy study of HA ± 5-FU in nude mouse xenografts; assay type: in vivo
Method: From the results in Example 2 the carcinoma cell line MDA-MB-468 was selected as the cancer cell inoculant for the generation of any nude mouse human tumour xenografts. Cells were routinely grown and subcultured as a previously described in Example 2. For injection into mice, cells were grown to 100% confluency, trypsinised in 0.025% trypsin/0.01% EDTA solution, washed twice by centrifugation in a Beckman TJ-6 bench centrifuge at 400 gav for 10 min, counted using a Model-ZM Coulter counter and resuspended in serum-free Leibovitz L-15 medium at 1×10^8 cells/ml. […]
Individual injections of 5-FU were prepared according to individual mouse masses, with the aim of delivering 30 mg/kg 5-FU in 50 μl (equivalent to human therapeutic dose of 10.5 mg/kg for a mean body weight of 60 kg; Inaba et al, 1988). […] With this quantity of HA injected into the body, saturation kinetics would be observed for the period of the experimentation (Fraser et al, 1983). […]
Animals were weighed and tumour volumes measured on the day of treatment application for long term study. In the 6-week study animals were weighed and tumour volumes measured on a daily basis. […]
Tumour volume was monitored on a daily or weekly basis by caliper measurements and tumour volume calculated as previously described.

[5] = system: MDA-MB 468 Breast cancer xenografts; assay: HA alone on breast cancer xenografts, metastasis, body mass and survival; assay type: in vivo; conditions: 12.5 mg/kg HA, three regimens; significant in 3/3 experiments
Method: To determine the effect of HA on tumor volume in vivo, 12.5 mg/kg of HA was administered on day 1 and 2 of a 7 day cycle for 6 cycles and 12.5 mg/kg on day 1 and 3 of 7 day cycle for 6 cycles (FIG. 9A) or 12.5 mg/kg on day 1 and 8 of 28 day cycle for 6 cycles (FIG. 9B). […] This anti-proliferative effect could be due to the degradation of the HA into apoptotic-inducing fragments and/or the microembolisation effect, which could result in tissue hypoxia and subsequent cell death.
The following table sets forth the results of the administration of HA on breast and colon cancer xenographs, metastasis, body mass and survival in vivo.

[6] = 6-week study: treatment toxicity (body mass, blood, organ mass, survival)
Source text: Animals were monitored daily for GI tract upset such as diarrhea and weekly for more severe toxicity manifestations such as weight loss.
As one of the major toxicities associated with 5-FU treatment is depression of the bone marrow and subsequent drop in white blood cells it was necessary to assess any treatment associated blood toxicity. Upon anaesthetizing the animals, blood was collected from the heart or great vessels using a needle and syringe. Estimation of white blood cell number by making a 1/50 dilution of blood in mouse tenacity saline (M) and counting it on a haemocytometer. A differential blood count was performed by counting-neutrophils, lymphocytes, and erythrocytes. The total estimation of blood cell sub-populations was compared to published data for mouse blood.
The mass of each organ was calculated as a % of the overall net body weight, and compared to the organ masses of the saline only group (Group 1).

## hyaluronan [HA]
[1]; HA exposure 30 min 100 nM
  Cytotoxic effect of HA, change in cell number: −27%
[1]; HA exposure 30 min 1000 nM
  Cytotoxic effect of HA, change in cell number: −26%
[1]; HA exposure 1 h 100 nM
  Cytotoxic effect of HA, change in cell number: −21%
[1]; HA exposure 24 h 100 nM
  Cytotoxic effect of HA, change in cell number: −8%
[1]; HA exposure 3 days 100 nM
  Cytotoxic effect of HA, change in cell number: −23%
[2]; HA exposure 30 min 100 nM
  Cytotoxic effect of HA, change in cell number: −5%
[2]; HA exposure 30 min 500 nM
  Cytotoxic effect of HA, change in cell number: −22%
[2]; HA exposure 30 min 1000 nM
  Cytotoxic effect of HA, change in cell number: +2%
[2]; HA exposure 1 h 100 nM
  Cytotoxic effect of HA, change in cell number: +3%
[2]; HA exposure 24 h 100 nM
  Cytotoxic effect of HA, change in cell number: −5%
[2]; HA exposure 3 days 100 nM
  Cytotoxic effect of HA, change in cell number: −29%
[3]
  reduction in breast cancer cell number: 0-29%
[4]; 6-week study
  non-lymphoid metastasis (new tumours near primary tumour): significant reduction in non-lymphoid metastasis
[4]; iv 12.5 mg/kg HA and/or 30 mg/kg 5-FU, 6 x 7 day cycles
  tumour mass at the end of the 6 week study, compared with other groups: significantly decreased the primary tumour mass; also recorded: reducing the primary tumour mass in comparison to the saline control
[5]
  % T/C versus saline: lower % T/C
[6]
  organ mass toxicity: did not result in any dramatic toxicity
[6]; HA as sole agent or chemosensitizer
  body mass / well being versus 5-FU treatment group: did not loose weight, but maintained its body mass
